In patent US20050112573A1, “Method of detecting toxic substance” (priority 2001, published 2005):

Test system: yeast genes (level of expressed mRNA)
Assay: DNA chip analysis of expressed mRNA of yeast genes after 2 h culture with a toxic chemical substance
Assay type: cell-based, Saccharomyces cerevisiae S288C
Outline: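 Values are treated-to-control fluorescence ratios from a whole-yeast-genome DNA chip (65° C, over 12 h hybridization) using Cy3/Cy5-labelled cDNA from mRNA. Log-phase S288C cells in YPD at 25° C were exposed 2 h to a toxicant at sublethal, growth-inhibiting concentration.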

Substance: γ-hexachlorocyclohexane [(7)]
- The level of expressed mRNA in the presence of chemical substance/ (yeast gene YAL053W, ratio to control without chemical): 0.7
- The level of expressed mRNA in the presence of chemical substance/The level of expressed mRNA in the absence of chemical substance (yeast gene YAR010C): 1.9
- The level of expressed mRNA in the presence of chemical substance/The level of expressed mRNA in the absence of chemical substance (yeast gene YBL005W-A): 1.4
- The level of expressed mRNA in the presence of chemical substance/The level of expressed mRNA in the absence of chemical substance (yeast gene YBL041W): 1.6
- The level of expressed mRNA in the presence of chemical substance/The level of expressed mRNA in the absence of chemical substance (yeast gene YBL043W): 1.5
- The level of expressed mRNA in the presence of chemical substance/ (yeast gene YBL048W, ratio to control without chemical substance, 2 h culture): 1.9
- The level of expressed mRNA in the presence of chemical substance/The level of expressed mRNA in the absence of chemical substance (yeast gene YBL078C): 3.1
- The level of expressed mRNA in the presence of chemical substance/ (yeast gene YBL107C, ratio to control without chemical substance, 2 h culture): 2.1
- The level of expressed mRNA in the presence of chemical substance/in the absence of chemical substance (yeast gene YBR036C): 1.3
- The level of expressed mRNA in the presence of chemical substance/The level of expressed mRNA in the absence of chemical substance (yeast gene YBR214W): 1.1
- The level of expressed mRNA in the presence of chemical substance/in the absence of chemical substance (yeast gene YBR298C): 1.7
- The level of expressed mRNA in the presence of chemical substance/The level of expressed mRNA in the absence of chemical substance (yeast gene YCL020W): 1.5
- The level of expressed mRNA in the presence of chemical substance/The level of expressed mRNA in the absence of chemical substance (yeast gene YCL027W): 1.0
- The level of expressed mRNA in the presence of chemical substance/The level of expressed mRNA in the absence of chemical substance (yeast gene YCR004C): 1.4
- The level of expressed mRNA in the presence of chemical substance/The level of expressed mRNA in the absence of chemical substance (yeast gene YCR071C): 1.4
- The level of expressed mRNA in the presence of chemical substance/The level of expressed mRNA in the absence of chemical substance (yeast gene YCR088W): 1.2
- The level of expressed mRNA in the presence of chemical substance/The level of expressed mRNA in the absence of chemical substance (yeast gene YDL008W): 2.0
- The level of expressed mRNA in the presence of chemical substance/ (yeast gene YDL072C, ratio to control without chemical): 1.8
- The level of expressed mRNA in the presence of chemical substance/in the absence of chemical substance (yeast gene YDL078C): 1.7
- The level of expressed mRNA in the presence of chemical substance/ (yeast gene YDL204W, ratio to control without chemical): 3.2
- The level of expressed mRNA in the presence of chemical substance/in the absence of chemical substance (yeast gene YDL215C): 1.9
- The level of expressed mRNA in the presence of chemical substance/ (yeast gene YDL222C, ratio to control without chemical): 1.0
- The level of expressed mRNA in the presence of chemical substance/The level of expressed mRNA in the absence of chemical substance (yeast gene YDL238C): 1.4
- The level of expressed mRNA in the presence of chemical substance/The level of expressed mRNA in the absence of chemical substance (yeast gene YDR055W): 1.5
- The level of expressed mRNA in the presence of chemical substance/The level of expressed mRNA in the absence of chemical substance (yeast gene YDR084C): 0.9
- The level of expressed mRNA in the presence of chemical substance/The level of expressed mRNA in the absence of chemical substance (yeast gene YDR085C): 4.1
- The level of expressed mRNA in the presence of chemical substance/The level of expressed mRNA in the absence of chemical substance (yeast gene YDR104C): 1.0
- The level of expressed mRNA in the presence of chemical substance/The level of expressed mRNA in the absence of chemical substance (yeast gene YDR115W): 1.6
- The level of expressed mRNA in the presence of chemical substance/The level of expressed mRNA in the absence of chemical substance (yeast gene YDR259C): 2.8
- The level of expressed mRNA in the presence of chemical substance/in the absence of chemical substance (yeast gene YDR297W): 0.6
- The level of expressed mRNA in the presence of chemical substance/The level of expressed mRNA in the absence of chemical substance (yeast gene YDR315C): 1.4
- The level of expressed mRNA in the presence of chemical substance/ (yeast gene YDR330W, ratio to control without chemical substance, 2 h culture): 1.3
- The level of expressed mRNA in the presence of chemical substance/The level of expressed mRNA in the absence of chemical substance (yeast gene YDR358W): 2.8
- The level of expressed mRNA in the presence of chemical substance/in the absence of chemical substance (yeast gene YDR387C): 1.3
- The level of expressed mRNA in the presence of chemical substance/The level of expressed mRNA in the absence of chemical substance (yeast gene YDR388W): 1.1
- The level of expressed mRNA in the presence of chemical substance/ (yeast gene YDR411C, ratio to control without chemical substance, 2 h culture): 2.0
- The level of expressed mRNA in the presence of chemical substance/The level of expressed mRNA in the absence of chemical substance (yeast gene YDR432W): 0.5
- The level of expressed mRNA in the presence of chemical substance/The level of expressed mRNA in the absence of chemical substance (yeast gene YDR481C): 0.7
- The level of expressed mRNA in the presence of chemical substance/The level of expressed mRNA in the absence of chemical substance (yeast gene YDR510W): 1.6
- The level of expressed mRNA in the presence of chemical substance/ (yeast gene YDR511W, ratio to control without chemical substance, 2 h culture): 1.5
- The level of expressed mRNA in the presence of chemical substance/ (yeast gene YDR545W, ratio to control without chemical substance, 2 h culture): 1.2
- The level of expressed mRNA in the presence of chemical substance/ (yeast gene YEL001C, ratio to control without chemical): 1.1
- The level of expressed mRNA in the presence of chemical substance/The level of expressed mRNA in the absence of chemical substance (yeast gene YEL042W): 0.5
- The level of expressed mRNA in the presence of chemical substance/The level of expressed mRNA in the absence of chemical substance (yeast gene YEL066W): 1.8
- The level of expressed mRNA in the presence of chemical substance/ (yeast gene YER004W, ratio to control without chemical substance, 2 h culture): 1.4
- The level of expressed mRNA in the presence of chemical substance/ (yeast gene YER035W, ratio to control without chemical substance, 2 h culture): 1.9
- The level of expressed mRNA in the presence of chemical substance/The level of expressed mRNA in the absence of chemical substance (yeast gene YER039C): 1.3
- The level of expressed mRNA in the presence of chemical substance/ (yeast gene YER079W, ratio to control without chemical substance, 2 h culture): 1.9
- The level of expressed mRNA in the presence of chemical substance/ (yeast gene YER106W, ratio to control without chemical): 1.0
- The level of expressed mRNA in the presence of chemical substance/The level of expressed mRNA in the absence of chemical substance (yeast gene YER107C): 1.0
- The level of expressed mRNA in the presence of chemical substance/The level of expressed mRNA in the absence of chemical substance (yeast gene YER130C): 1.5
- The level of expressed mRNA in the presence of chemical substance/ (yeast gene YER158C, ratio to control without chemical substance, 2 h culture): 1.2
- The level of expressed mRNA in the presence of chemical substance/ (yeast gene YER163C, ratio to control without chemical substance, 2 h culture): 1.5
- The level of expressed mRNA in the presence of chemical substance/ (yeast gene YER175C, ratio to control without chemical substance, 2 h culture): 2.3
- The level of expressed mRNA in the presence of chemical substance/ (yeast gene YFL006W, ratio to control without chemical substance, 2 h culture): 1.0
